One block for each compound: values may come before it.
Legend:
[1] = molecular target: Serine/threonine-protein kinase AKT (Homo sapiens, UniProt P31751+Q9Y243+P31749); test: Inhibition of Akt (unknown origin); type: protein assay
[2] = Inhibition of Akt/p70S6K in human MDA-MB-436 cells assessed as inhibition of S6 phosphorylation; type: cell-based
[3] = Inhibition of p70S6K (unknown origin); design: species or system Homo sapiens
[4] = molecular target: Voltage-gated inwardly rectifying potassium channel KCNH2 (Homo sapiens, UniProt Q12809); test: Inhibition of human ERG by patch clamp assay
Chain of Voltage-gated inwardly rectifying potassium channel KCNH2 (Q12809 whole entry): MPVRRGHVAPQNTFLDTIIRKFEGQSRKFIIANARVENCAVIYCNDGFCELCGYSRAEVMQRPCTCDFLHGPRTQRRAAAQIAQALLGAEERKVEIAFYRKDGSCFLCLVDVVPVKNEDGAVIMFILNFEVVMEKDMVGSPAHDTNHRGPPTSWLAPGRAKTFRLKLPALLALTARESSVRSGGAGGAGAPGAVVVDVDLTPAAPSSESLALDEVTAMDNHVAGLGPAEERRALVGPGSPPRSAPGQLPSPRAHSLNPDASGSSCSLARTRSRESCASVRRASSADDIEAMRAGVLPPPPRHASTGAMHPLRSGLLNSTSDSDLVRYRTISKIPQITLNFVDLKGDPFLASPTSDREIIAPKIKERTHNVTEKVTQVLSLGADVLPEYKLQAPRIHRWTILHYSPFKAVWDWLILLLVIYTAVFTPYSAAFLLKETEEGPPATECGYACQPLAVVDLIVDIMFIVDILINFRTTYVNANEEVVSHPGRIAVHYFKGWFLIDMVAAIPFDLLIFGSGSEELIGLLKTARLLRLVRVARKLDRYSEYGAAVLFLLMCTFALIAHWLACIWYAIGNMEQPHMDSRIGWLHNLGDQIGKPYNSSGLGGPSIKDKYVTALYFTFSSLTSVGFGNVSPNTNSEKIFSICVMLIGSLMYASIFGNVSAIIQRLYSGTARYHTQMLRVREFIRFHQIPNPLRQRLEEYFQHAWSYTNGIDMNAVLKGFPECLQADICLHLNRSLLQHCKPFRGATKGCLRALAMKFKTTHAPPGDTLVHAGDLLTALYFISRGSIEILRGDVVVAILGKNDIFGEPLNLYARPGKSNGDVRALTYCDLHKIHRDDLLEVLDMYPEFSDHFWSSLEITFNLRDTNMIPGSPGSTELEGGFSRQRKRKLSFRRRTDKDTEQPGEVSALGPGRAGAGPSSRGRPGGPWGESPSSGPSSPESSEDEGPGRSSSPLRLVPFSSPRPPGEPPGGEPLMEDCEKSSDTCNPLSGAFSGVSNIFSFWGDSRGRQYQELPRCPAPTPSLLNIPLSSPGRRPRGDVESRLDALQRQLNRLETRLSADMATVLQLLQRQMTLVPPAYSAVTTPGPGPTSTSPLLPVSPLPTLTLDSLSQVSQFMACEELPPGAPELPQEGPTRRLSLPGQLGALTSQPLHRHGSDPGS

[5] = molecular target: T1, Cytochrome P450 2C8 (Homo sapiens, UniProt P10632); test: Inhibition of CYP2C8 (unknown origin); type: ADME
T1 sequence (P10632 whole entry): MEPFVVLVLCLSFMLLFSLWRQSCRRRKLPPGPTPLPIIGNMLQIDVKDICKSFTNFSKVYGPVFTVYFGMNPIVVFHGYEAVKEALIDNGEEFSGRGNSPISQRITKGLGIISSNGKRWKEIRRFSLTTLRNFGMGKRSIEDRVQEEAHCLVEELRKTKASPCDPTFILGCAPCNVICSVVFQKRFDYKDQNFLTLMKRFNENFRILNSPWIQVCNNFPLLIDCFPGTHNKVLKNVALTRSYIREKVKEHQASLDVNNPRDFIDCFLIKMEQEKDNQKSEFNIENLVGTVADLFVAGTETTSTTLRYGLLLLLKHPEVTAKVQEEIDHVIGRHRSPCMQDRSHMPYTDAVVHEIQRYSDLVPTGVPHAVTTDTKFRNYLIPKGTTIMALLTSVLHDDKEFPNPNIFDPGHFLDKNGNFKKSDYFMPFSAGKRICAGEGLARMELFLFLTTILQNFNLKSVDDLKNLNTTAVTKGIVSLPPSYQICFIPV

[6] = molecular target: Cytochrome P450 2D6 (Homo sapiens, UniProt P10635); test: Inhibition of CYP2D6 (unknown origin); type: ADME
Chain of Cytochrome P450 2D6 (P10635 whole entry): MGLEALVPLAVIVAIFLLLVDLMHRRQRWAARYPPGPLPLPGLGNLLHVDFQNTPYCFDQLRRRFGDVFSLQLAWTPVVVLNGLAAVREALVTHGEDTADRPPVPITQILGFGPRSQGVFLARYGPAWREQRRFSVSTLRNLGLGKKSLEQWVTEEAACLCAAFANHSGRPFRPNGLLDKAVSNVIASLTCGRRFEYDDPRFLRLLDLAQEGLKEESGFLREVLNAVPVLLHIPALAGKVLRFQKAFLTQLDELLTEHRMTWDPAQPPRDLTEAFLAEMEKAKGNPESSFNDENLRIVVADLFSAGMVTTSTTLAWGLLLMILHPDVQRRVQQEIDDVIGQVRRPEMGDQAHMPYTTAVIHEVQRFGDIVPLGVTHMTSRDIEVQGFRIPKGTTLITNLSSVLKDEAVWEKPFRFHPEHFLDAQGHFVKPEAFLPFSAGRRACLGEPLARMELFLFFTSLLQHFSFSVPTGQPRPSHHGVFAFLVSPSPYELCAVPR

[7] = Apparent permeability across apical to basal side in human Caco-2 cells; type: ADME, cell-based
[8] = Clearance in CD-1 mouse at 0.5 mg/kg, po or 0.2 mg/kg, iv; type: ADME, organism-based; details: in vivo
[9] = Efflux ratio of apparent permeability in human Caco-2 cells; type: ADME, cell-based
[10] = molecular target: Cytochrome P450 2C9 (Homo sapiens, UniProt P11712); test: Inhibition of CYP2C9 (unknown origin); type: ADME
Chain of Cytochrome P450 2C9 (P11712 whole entry): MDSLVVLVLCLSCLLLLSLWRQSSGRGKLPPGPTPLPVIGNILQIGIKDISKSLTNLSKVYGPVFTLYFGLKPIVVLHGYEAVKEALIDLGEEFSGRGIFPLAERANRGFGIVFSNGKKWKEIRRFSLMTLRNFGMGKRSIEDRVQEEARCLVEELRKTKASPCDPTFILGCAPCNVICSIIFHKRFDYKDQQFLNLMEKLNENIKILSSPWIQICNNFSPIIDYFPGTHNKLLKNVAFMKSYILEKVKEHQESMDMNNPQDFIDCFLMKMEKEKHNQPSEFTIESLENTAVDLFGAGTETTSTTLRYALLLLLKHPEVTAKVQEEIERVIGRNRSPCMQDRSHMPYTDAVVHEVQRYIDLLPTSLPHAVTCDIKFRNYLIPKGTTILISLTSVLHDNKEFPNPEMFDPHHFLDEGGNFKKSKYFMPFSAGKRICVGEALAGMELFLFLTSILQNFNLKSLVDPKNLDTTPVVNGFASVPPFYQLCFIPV

[11] = AUC in CD-1 mouse at 0.2 mg/kg, iv; type: ADME, organism-based; design: dose 0.2 mg/kg; details: in vivo
[12] = molecular target: T2, Cytochrome P450 1A2 (Homo sapiens, UniProt P05177); test: Inhibition of CYP1A2 (unknown origin); type: ADME
T2 sequence (P05177 whole entry): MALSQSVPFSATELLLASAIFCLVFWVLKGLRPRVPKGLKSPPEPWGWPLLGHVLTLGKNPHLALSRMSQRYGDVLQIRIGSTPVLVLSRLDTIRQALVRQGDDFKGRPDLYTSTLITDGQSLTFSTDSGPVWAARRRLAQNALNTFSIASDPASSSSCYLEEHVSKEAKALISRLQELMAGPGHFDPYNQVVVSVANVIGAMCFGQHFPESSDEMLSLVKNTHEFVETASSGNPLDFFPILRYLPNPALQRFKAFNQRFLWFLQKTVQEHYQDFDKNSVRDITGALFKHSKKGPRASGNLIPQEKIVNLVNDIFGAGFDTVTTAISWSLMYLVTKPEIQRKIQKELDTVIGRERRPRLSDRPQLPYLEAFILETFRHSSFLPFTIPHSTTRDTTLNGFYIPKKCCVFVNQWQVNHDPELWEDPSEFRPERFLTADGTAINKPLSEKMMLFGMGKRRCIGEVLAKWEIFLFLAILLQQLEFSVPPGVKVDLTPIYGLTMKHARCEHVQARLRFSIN

[13] = Volume of distribution in CD-1 mouse at 0.5 mg/kg, po or 0.2 […], iv; type: ADME, organism-based; details: in vivo
[14] = Intrinsic clearance in mouse liver microsomes; type: ADME, Microsome; details: read-out: CLH
[15] = molecular target: Cytochrome P450 2C19 (Homo sapiens, UniProt P33261); test: Inhibition of CYP2C19 (unknown origin); type: ADME
Chain of Cytochrome P450 2C19 (P33261 whole entry): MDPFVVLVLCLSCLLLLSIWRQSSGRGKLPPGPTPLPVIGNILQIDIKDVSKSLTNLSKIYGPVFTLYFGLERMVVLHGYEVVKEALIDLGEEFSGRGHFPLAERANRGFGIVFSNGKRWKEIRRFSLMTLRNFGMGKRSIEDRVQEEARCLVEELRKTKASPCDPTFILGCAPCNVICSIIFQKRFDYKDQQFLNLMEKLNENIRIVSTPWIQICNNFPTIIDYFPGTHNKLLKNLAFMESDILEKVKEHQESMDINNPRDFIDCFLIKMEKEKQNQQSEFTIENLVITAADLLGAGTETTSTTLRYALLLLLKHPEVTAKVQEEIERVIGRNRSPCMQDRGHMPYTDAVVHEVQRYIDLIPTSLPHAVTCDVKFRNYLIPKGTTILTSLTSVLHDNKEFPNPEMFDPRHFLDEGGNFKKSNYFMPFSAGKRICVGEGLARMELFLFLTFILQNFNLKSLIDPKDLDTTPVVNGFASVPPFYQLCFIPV

[16] = Oral bioavailability in CD-1 mouse at 0.5 mg/kg; type: ADME, organism-based; details: in vivo
[17] = Intrinsic clearance in human liver microsomes; type: ADME, Microsome; details: read-out: CLH
[18] = Cmax in CD-1 mouse at 0.2 mg/kg, iv; type: ADME, organism-based; design: route intravenous, dose 0.2 mg/kg; details: in vivo
[19] = AUC in CD-1 mouse at 0.5 mg/kg, po; type: ADME, organism-based; design: dose 0.5 mg/kg; details: in vivo
[20] = Cmax in CD-1 mouse at 0.5 mg/kg, po; type: ADME, organism-based; design: route oral, dose 0.5 mg/kg; details: in vivo
[21] = Protein binding in human plasma assessed as unbound fraction; type: ADME, cell-free
[22] = Half life in CD-1 mouse at 0.5 mg/kg, po or 0.2 mg/kg, iv; type: ADME, organism-based; details: in vivo
[23] = molecular target: Cytochrome P450 3A4 (Homo sapiens, UniProt P08684); test: Inhibition of CYP3A4 (unknown origin); type: ADME
Chain of Cytochrome P450 3A4 (P08684 whole entry): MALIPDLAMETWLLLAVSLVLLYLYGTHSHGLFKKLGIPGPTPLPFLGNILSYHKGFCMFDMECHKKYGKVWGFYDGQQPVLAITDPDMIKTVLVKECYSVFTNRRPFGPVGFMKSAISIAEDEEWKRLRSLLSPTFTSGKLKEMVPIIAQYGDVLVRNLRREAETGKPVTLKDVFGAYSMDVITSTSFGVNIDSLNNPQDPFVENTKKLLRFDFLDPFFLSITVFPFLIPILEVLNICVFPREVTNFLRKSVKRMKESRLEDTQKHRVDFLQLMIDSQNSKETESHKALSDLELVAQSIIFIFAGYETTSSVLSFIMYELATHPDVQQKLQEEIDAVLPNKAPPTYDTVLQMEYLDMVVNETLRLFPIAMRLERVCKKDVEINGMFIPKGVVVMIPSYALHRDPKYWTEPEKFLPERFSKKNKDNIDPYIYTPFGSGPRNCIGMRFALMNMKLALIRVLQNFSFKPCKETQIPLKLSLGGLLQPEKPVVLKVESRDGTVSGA

[24] = Protein binding in mouse plasma assessed as unbound fraction; type: ADME, cell-free
[25] = molecular target: T3, Cytochrome P450 2B6 (Homo sapiens, UniProt P20813); test: Inhibition of CYP2B6 (unknown origin); type: ADME
T3 sequence (P20813 whole entry): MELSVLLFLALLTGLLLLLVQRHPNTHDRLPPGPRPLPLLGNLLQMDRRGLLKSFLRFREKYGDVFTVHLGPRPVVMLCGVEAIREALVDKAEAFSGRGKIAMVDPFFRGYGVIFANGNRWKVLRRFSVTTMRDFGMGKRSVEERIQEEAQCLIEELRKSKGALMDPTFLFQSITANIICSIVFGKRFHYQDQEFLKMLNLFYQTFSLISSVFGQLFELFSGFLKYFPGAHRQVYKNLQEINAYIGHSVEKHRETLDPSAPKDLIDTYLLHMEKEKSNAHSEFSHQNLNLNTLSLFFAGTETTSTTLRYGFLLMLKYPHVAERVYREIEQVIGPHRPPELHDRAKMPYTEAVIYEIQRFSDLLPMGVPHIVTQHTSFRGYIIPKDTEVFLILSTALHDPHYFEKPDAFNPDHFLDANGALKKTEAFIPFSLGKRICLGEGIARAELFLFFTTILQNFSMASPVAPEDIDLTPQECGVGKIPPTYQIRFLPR

[26] = Thermodynamic solubility of the compound at pH 1.2; type: physicochemical; details: buffer, read-out: Therm_solubility
[27] = Thermodynamic solubility of the compound at pH 7.4; type: physicochemical; details: buffer, read-out: Therm_solubility

IC50 [1]: > 1000 nM | IC50 [2]: 2600 nM | IC50 [3]: 6.3 nM
Compound: NCC(c1ccccc1)N1CCN(c2ncnc(N)c2-c2ccc(F)cc2)CC1 (stereo not given)

IC50 [1]: 4.8 nM | IC50 [3]: 3.2 nM
Compound: CN(C)CCn1cc(-c2ccc(F)c(C(F)(F)F)c2)nc1C1CCN(c2ncnc(N)c2C2CC2)CC1
IC50 [4]: 830 nM

IC50 [1]: 23 nM | IC50 [3]: 2.4 nM
Compound: Nc1ncnc(N2CCC(c3nc(-c4ccc(F)c(C(F)(F)F)c4)cn3CCN3CCC3)CC2)c1-c1ccc(F)cc1
IC50 [4]: 1300 nM

IC50 [1]: 12 nM | IC50 [3]: 3.7 nM
Compound: CCc1c(N)ncnc1N1CCC(c2nc(-c3ccc(F)c(C(F)(F)F)c3)cn2CCN(C)C)CC1

IC50 [1]: > 1000 nM | IC50 [2]: 400 nM | IC50 [3]: 1.6 nM
Compound: Cn1cc(-c2ccc(F)c(C(F)(F)F)c2)nc1C1CCN(c2ncnc(N)c2-c2cccc(F)c2)CC1

IC50 [1]: 6.9 nM | IC50 [2]: 55000 nM | IC50 [3]: 1.8 nM
Compound: CN(C)CCn1cc(-c2ccc(F)c(C(F)(F)F)c2)nc1C1CCN(c2ncnc(N)c2C#N)CC1
IC50 [4]: 1600 nM

IC50 [1]: 140 nM | IC50 [3]: 8.2 nM
Compound: Nc1ncnc(N2CCC(c3nc(-c4ccc(F)c(C(F)(F)F)c4)cn3CCN3CCCC3)CC2)c1-c1ccc(F)cc1
IC50 [4]: 1500 nM

IC50 [1]: 6.6 nM | IC50 [2]: 78000 nM | IC50 [3]: 3.5 nM
Compound: CC(C)c1c(N)ncnc1N1CCC(c2nc(-c3ccc(F)c(C(F)(F)F)c3)cn2CCN2CCC2)CC1
IC50 [4]: 1800 nM

IC50 [1]: 1 nM | IC50 [2]: 64000 nM | IC50 [3]: 0.6 nM
Compound: Nc1ncnc(N2CCC(c3nc(-c4ccc(F)c(C(F)(F)F)c4)cn3CCN3CCC3)CC2)c1Cl
IC50 [4]: 1900 nM

IC50 [1]: > 1000 nM | IC50 [2]: 22000 nM | IC50 [3]: 102 nM
Compound: Cn1cc(-c2ccc(F)c(C(F)(F)F)c2)nc1C1CCN(c2cc(N)ncn2)CC1

IC50 [1]: > 1000 nM | IC50 [2]: 1900 nM | IC50 [3]: 4.4 nM
Compound: NCC(c1ccc(F)cc1)N1CCN(c2ncnc(N)c2-c2ccc(F)cc2)CC1 (stereo not given)

IC50 [1]: 850 nM | IC50 [2]: 600 nM | IC50 [3]: 2.1 nM
Compound: Cc1ncc(-c2c(N)ncnc2N2CCC(c3nc(-c4ccc(F)c(C(F)(F)F)c4)cn3C)CC2)s1

IC50 [1]: 4 nM | IC50 [2]: 49000 nM | IC50 [3]: 2 nM
Compound: CCc1c(N)ncnc1N1CCC(c2nc(-c3ccc(F)c(C(F)(F)F)c3)cn2CCN2CCC2)CC1
IC50 [4]: 1600 nM

IC50 [5]: > 20000 nM | IC50 [6]: > 20000 nM | Papp A→B [7]: 1.9 ×10⁻⁶ cm/s | IC50 [1]: 2200 nM | IC50 [2]: 40 nM | CL [8]: 12.3 mL/min/kg | efflux ratio [9]: 1.3 | IC50 [10]: > 20000 nM | AUC [11]: 1350 ng·h/mL | IC50 [12]: > 20000 nM | Vd [13]: 2.16 L/kg | microsomal CLint [14]: 48 µL/min/mg | IC50 [15]: > 20000 nM | F [16]: 41% | microsomal CLint [17]: 23 µL/min/mg | Cmax [18]: 597 ng/mL | AUC [19]: 557 ng·h/mL | Cmax [20]: 72.1 ng/mL | fraction unbound [21]: 0.0008 | IC50 [3]: 4 nM | half-life [22]: 4.68 h | IC50 [23]: > 20000 nM | fraction unbound [24]: 0.0003 | IC50 [25]: 6500 nM | solubility thermodynamic [26]: < 1 µg/mL | solubility thermodynamic [27]: < 1 µg/mL
Compound: Cn1cc(-c2ccc(F)c(C(F)(F)F)c2)nc1C1CCN(c2ncnc(N)c2-c2ccc(F)cc2)CC1
IC50 [4]: 1800 nM

IC50 [1]: > 1000 nM | IC50 [2]: 1200 nM | IC50 [3]: 4.9 nM
Compound: CN(C)CC(c1ccc(C(F)(F)F)cc1)N1CCN(c2ncnc(N)c2-c2ccc(F)cc2)CC1 (stereo not given)

IC50 [1]: 880 nM | IC50 [2]: 700 nM | IC50 [3]: 2.3 nM
Compound: Cn1cc(-c2ccc(F)c(C(F)(F)F)c2)nc1C1CCN(c2ncnc(N)c2-c2cncnc2)CC1
